{
  "source": "patent US20140030808A1",
  "about": "“Method for Cellular RNA Expression” (BIONTECH AG, priority 2010, published 2014)",
  "key": {"CCD1079SK fibroblasts": {"tested_on": "CCD1079SK fibroblasts", "test": "Intracellular abundance and half-life of IVT-RNA constructs (qRT-PCR)", "assay_type": "cell-based, human", "procedure": "(A) CCD1079SK fibroblasts were either mock electroporated or electroporated with IVT RNA encoding for firefly luciferase (1 μg), eGFP (1.25 μg), SV40 Large T (1.25 μg), HPV16-E6 (1.25 μg), OCT4, SOX2, KLF4, cMYC, NANOG and LIN28 (2.5 μg OCT4 and equimolar amounts for the others). Electroporations were performed in 2 mm gap cuvettes using optimized parameters for CCDs. After electroporation cells were either left untreated or incubated with 2 μM C13H8N4OS for 24 h or 48 h. After 72 h cells were harvested to extract total RNA and perform qRT-PCR analysis for the codon optimized IVT-RNA constructs OCT4 and SOX2. […] Decay of transcripts was plotted against time and difference between half-lifes (t1/2) of the construct in absence or presence of C13H8N4OS was calculated (Δt1/2=t1/2 (+C13H8N4OS)−t1/2 (−C13H8N4OS)). […]\nTotal cellular RNA was extracted from cells with RNeasy Mini Kit or RNeasy Micro Kit (Qiagen, Hilden, Germany), reverse transcribed with oligo-dT18 using Superscript II (Invitrogen, Carlsbad, Calif., USA), and subjected to real-time quantitative analysis on ABI PRISM 7700 Sequence Detection System instrument and software (Applied Biosystems, Foster City, Calif., USA) using the QuantiTect SYBR Green PCR Kit (Qiagen). […]"}, "[1]": {"tested_on": "Primary human foreskin fibroblasts (CCD1079SK)", "test": "Induction of type-I interferon transcripts (qRT-PCR) after IVT RNA electroporation", "assay_type": "cell-based", "conditions": "2 μM C13H8N4OS", "procedure": "Primary human foreskin fibroblasts (CCD1079SK) were electroporated with 1 μg IVT RNA encoding for firefly luciferase and 5 μg IVT RNA encoding for destabilized GFP (luc+GFP). The cells were either left untreated or incubated with 2 μM C13H8N4OS (PKR-inhibitor). Upregulation of interferon-alpha and interferon-betatranscripts in human fibroblasts induced by RNA electroporation was observed (FIGS. 1A and 1C).\nTotal cellular RNA was extracted from cells with RNeasy Mini Kit or RNeasy Micro Kit (Qiagen, Hilden, Germany), reverse transcribed with oligo-dT18 using Superscript II (Invitrogen, Carlsbad, Calif., USA), and subjected to real-time quantitative analysis on ABI PRISM 7700 Sequence Detection System instrument and software (Applied Biosystems, Foster City, Calif., USA) using the QuantiTect SYBR Green PCR Kit (Qiagen). Reactions were performed in triplicates with primer amplifying a specific region of the codon optimized\nPrimary human foreskin fibroblasts (CCD1079SK) were electroporated with 1 μg IVT RNA encoding for firefly luciferase and 5 μg IVT RNA encoding for destabilized GFP (luc+GFP). Electroporations were performed in 2 mm gap cuvettes using optimized parameters. The cells were plated in 6-well-plates at a density of 300000 cells/well and either left untreated or incubated with 2 μM C13H8N4OS (PKR-inhibitor). 24 h later cells were harvested for total RNA extraction and reverse transcription. The induction of type-I interferons was assessed by qRT-PCR using specific primer for IFNα or IFNβ in the presence or absence of PKR-inhibitor as indicated in FIG. 1. Panels A and C show the same samples as B and D with reduced values of the y-axis."}},
  "data": [
    {"smiles": "O=C1Nc2ccc3ncsc3c2/C1=C/c1c[nH]cn1", "note": "[C13H8N4OS, 6,8-dihydro-8-(1H-imidazol-5-ylmethylene)-7H-pyrrolo[2,3-g]benzothiazol-7-one]", "values": [
      {"measurement": "abundance of IVT RNA (OCT4, SOX2 constructs)", "setting": "CCD1079SK fibroblasts; 2 μM for 24 h or 48 h, harvested after 72 h", "value": "increased the abundance of IVT RNA for 72 h"},
      {"measurement": "prolongation of half life of IVT RNA constructs OCT4, SOX2, KLF4 and cMYC (Δt1/2)", "setting": "CCD1079SK fibroblasts; 2 μM for 80 h, presence vs absence of C13H8N4OS", "value": "1 to 2.5", "unit": "h"},
      {"measurement": "IFN-α transcript induction", "setting": "[1]; 24 h, with or without RNA", "value": "induced even in the absence of RNA"},
      {"measurement": "IFN-β transcript induction", "setting": "[1]; 24 h, with or without RNA", "value": "only in the presence of RNA"},
      {"measurement": "interferon transcripts (IFNα, IFNβ; qRT-PCR)", "setting": "[1]; 24 h after electroporation with luc+GFP IVT RNA, vs untreated", "value": "overwhelming increase"}
    ]}
  ]
}
